Experimental data as given in US6344219B1, “Chinese drug composition for treatment of peptic ulcer and preparation thereof” (priority 1995, dated 2002).

What was measured:
[1] = test system: stress ulcer of rats induced by water soaking; experiment: Effect to stress ulcer (Takagi's method, water soaking); format: in vivo, Rats(SD); conditions: 100 mg/kg qd × 2
Description: The model was established following Takagi's method. Takagi, et al., The Effects of Drugs on the production and Recovery Processes of the Stress Ulcer, 18:9-18 (1968); and Takagi et al., A New Method For The Production of Chronic Gastric Ulcer in Rats and The Effect of Several Drugs on its Healing, Japan J. Pharmacol Japan J. Pharmacol 19:418-426 (1969). Fifty rats, 159+13 g, male and female half and half, were randomly divided into five groups according to sex and weight and were administered with drugs daily twice, once both in the morning and afternoon for two days. From the beginning of the experiments, food was abstained but water was freely fed. One hour after the last administration, rats were bound on a board and were soaked in a thermostatic flowing water bath at […] for 18 hr then were executed by decapitation. Take out the stomach by abdominal section and ligate the pylorus first then inject 10 ml of 1% formaldehyde solution through cardia of stomach and ligate the cardia. After formalizing the stomach in 1% formaldehyde solution for 10 min, the stomach was cut along the greater curvature with scissor, rinse with normal saline solution for three times and absorb with filter paper, then flatten it on a glass plate and examine the degree of mucosa ulcer and count the number using magnifier. […]

pyloric ligation ulcer = experiment: Effect to the ulcer of pyloric ligation (Shay's method); format: in vivo, Rats(SD); conditions: rats; dose 200
Description: The experiment is conducted following Shay's method. Fifty rats, 190+20 g, male and female half and half, were randomly divided into five groups according to weight and sex and were administered as 1-1 for three days. Food was abstained but water was freely fed before 48 hr of the operation. After 2 hr of the last administration, operation of pyloric ligation was conducted then both food and water were abstained. After 48 hr the rats were executed and their gastric juice was collected for measuring the volume, and determining the free acid, total acid and pepsin following Metle's method.

[2] = test system: chronic gastric ulcer caused by acetic acid burn; experiment: Chronic gastric ulcer of rats caused by acetic acid burn (adapted Takagi's method); format: in vivo, Rats(SD); conditions: 200 mg/kg × 12 day ig qd
Description: The experiment was conducted using adapted Takagi's method. Fifty rats, 165+15 g, male and female half and half, after abstaining food without abstaining water for 24 hr, were primary anesthetized with ether and their skin were sterilized as regular method. After abdominal section the stomach was gently pulled out. A small glass tube with 0.5 cm inner diameter and 3 cm length was inserted into the stomach near the lesser curvature stomach gland of pylorus using middle finger to resist against the opposite stomach wall. 0.1 ml acetic acid was injected into stomach through the glass tube. After 30 sec counting with stopwatch, acetic acid was sucked out and the stomach was rinsed with sterilized normal saline for three times. Remove out the glass tube and absorb the normal saline on its external surface with sterilized filter paper the stomach was put into the abdomen then sew up the wound and sterilize. The rats was randomly divided into 5 groups according to sex and weight on the second day of operation. The rats were administered with drug ig qd×12 day, after abstaining food overnight then were executed by decapitation. The ulcer volumes were measured using the method of injection ink with a micro syringe.

[3] = test system: gastric ulcer induced by Reserpine; experiment: Gastric ulcer of rats induced by Reserpine; format: in vivo, Rats(SD); conditions: 200.0 mg/kg ig once daily for three days, Reserpine 5 mg/kg sc
Description: Fifty rats, 180±18 g, male and female half and half, were divided into five groups and were treated with drug ig once daily for three days. After abstaining food for 24 hr Reserpine 5 mg/kg was injected subcutaneously. The rats were executed by decapitation after 18 hr and the gastric ulcer was examined as the same method of 1-1.

[4] = test system: ulcer induced by Histamine; experiment: Ulcer of mice induced by Histamine; format: in vivo, Mice(ICR); conditions: 200 mg/kg bid × 2 ig, Histamine 80 mg/kg ip
Description: Forty mice, male 23±2 g, were divided into five groups, and were administrated once both in the morning and afternoon of everyday by ig. Mice were abstained to feed food for 24 hr except water, then administered Histamine 80 mg/kg, ip, after abstaining food for 8 hr were executed. Take out the stomachs and examine ulcer index using the same method as 1-1.

CNC(=C[N+](=O)[O-])NCCSCc1ccc(CN(C)C)o1.Cl [Ranitidine, Ranitidine hydrochloride]
rate of inhibition (%) [1]: 41.5% | ulcer index (x ± SD) [1]: 2.14 ± 0.46 | ulcer index (pyloric ligation ulcer): 1.22 ± 1.44 | rate of inhibition (%) [2]: 50.7% | ulcer volume (μl, × ± SD) [2]: 1.72 ± 1.46 µL | rate of inhibition (%) [3]: 78.2% | ulcer index (x ± SD) [3]: 7.6 ± 2.0 | rate of inhibition (%) [4]: 87.8% | ulcer index (x ± SD) [4]: 1.4 ± 3.5
